# Test results from patent US7674789B2, “Compounds” (Glaxo Group Limited, priority 2005, dated 2010).
# “Also recorded” adds a separate entry of the source.
# Tested on: influx of neutrophils to the lung in LPS-challenged rats
# Assay: Rat LPS neutrophilia model
# Format: in vivo
# Details: intratracheal compound 15 min-24 hours before LPS aerosol (100 ug/ml, 15 min), lavage 4 hours later, in at least one of the range of conditions tested
# Experimental: Rat LPS Neutrophilia Model
# The effect of compounds on the influx of neutrophils to the lung in LPS-challenged rats is evaluated as follows. The test compound is suspended in one of the following solutions: 0.5% tween 80/PBS, 0.5% tween 80/saline, 10% EtOH/saline (with pH adjusted to 2.0, or 8.0 with HCl, or unadjusted), Saline @ pH 2.0, 6.5 or 8.0, 0.5% Tragacanth, 1% DMSO/20% Encapsin/Saline, or acidified 5% Tragacanth. The suspension process may be aided by the use of a glass homogenizer. For intratracheal administration, the animals are anesthetized with inhaled isoflurane and placed in a supine position, the trachea is intubated with a steel gavage needle (1.5 inch, 22 gauge, small ball) or a Penn-Century Microsprayer Aerosolizer (model IA-1B) and 200 ul of dosing solution is delivered. The animals are visually monitored during the recovery process, which typically occurs within two minutes.
# Rats treated with compound or vehicle (15 min-24 hours pretreatment) are exposed to an LPS aerosol (100 ug/ml) for 15 min. Four hours later the rats are euthanized with pentobarbital (100 mg/kg, i.p.) and the airways are lavaged with 5 washes of 5 ml of phosphate buffered saline. The harvested cells are stained (Diffquick) and counted to determine total and differential cell data. In a typical study, macrophages represent 40-70% of the total cells, and polymorphonuclear cells 30-60% of the total cells. Inhibition of neutrophil levels relative to no compound controls is calculated based on the differential counts.
# The assay has varying conditions, such as concentration, pretreat time, form of the compound (crystalline, amorphous, salts, micronised), and a wet or dry application of the compound. The data is obtained as % inhibition using a particular concentration and pretreat time.
row,SMILES,inhibition of neutrophilia (neutrophil influx to the lung)
1,"Cc1ccc(C(=O)NC(C)C)cc1-c1nc(NCCN(C)C)nc2c1CNC(=O)N2c1c(F)cccc1F [Example 37, 3-(8-(2,6-difluorophenyl)-2-{[2-(dimethylamino)ethyl]amino}-7-oxo-5,6,7,8-tetrahydropyrimido[4,5-d]pyrimidin-4-yl)-4-methyl-N-(1-methylethyl)benzamide]",statistically nonsignificant inhibition of neutrophilia
2,"Cc1ccc(C(=O)NCc2ccccc2)cc1-c1nc(N(C)CCCN(C)C)nc2c1CNC(=O)N2c1c(F)cccc1F [Example 17, 3-{8-(2,6-Difluorophenyl)-2-[[3-(dimethylamino)propyl](methyl)amino]-7-oxo-5,6,7,8-tetrahydropyrimido[4,5-d]pyrimidin-4-yl}-4-methyl-N-(phenylmethyl)benzamide]",statistically nonsignificant inhibition of neutrophilia
3,"Cc1ccc(C(=O)Nc2nccs2)cc1-c1nc(NC[C@H](C)O)nc2c1CNC(=O)N2c1c(F)cccc1F [Example 134, 3-(8-(2,6-difluorophenyl)-2-{[(2S)-2-hydroxypropyl]amino}-7-oxo-5,6,7,8-tetrahydropyrimido[4,5-d]pyrimidin-4-yl)-4-methyl-N-1,3-thiazol-2-ylbenzamide]",statistically nonsignificant inhibition of neutrophilia
4,"Cc1ccc(C(=O)NC(C)C)cc1-c1nc(N2CCC(N3CCCC3)CC2)nc2c1CNC(=O)N2c1c(F)cccc1F [Example 60, 3-{8-(2,6-difluorophenyl)-7-oxo-2-[4-(1-pyrrolidinyl)-1-piperidinyl]-5,6,7,8-tetrahydropyrimido[4,5-d]pyrimidin-4-yl}-4-methyl-N-(1-methylethyl)benzamide]",statistically nonsignificant inhibition of neutrophilia; also recorded: inactive
5,"Cc1ccc(C(=O)Nc2nccs2)cc1-c1nc(NCCCN(C)C)nc2c1CNC(=O)N2c1c(F)cccc1F [Example 119, 3-(8-(2,6-difluorophenyl)-2-{[3-(dimethylamino)propyl]amino}-7-oxo-5,6,7,8-tetrahydropyrimido[4,5-d]pyrimidin-4-yl)-4-methyl-N-1,3-thiazol-2-ylbenzamide]",statistically significant inhibition of neutrophilia
6,"Cc1ccc(C(=O)NC(C)C)cc1-c1nc(N2CCC(N3CCCCC3)CC2)nc2c1CNC(=O)N2c1c(F)cccc1F [Example 57, 3-[2-(1,4′-bipiperidin-1′-yl)-8-(2,6-difluorophenyl)-7-oxo-5,6,7,8-tetrahydropyrimido[4,5-d]pyrimidin-4-yl]-4-methyl-N-(1-methylethyl)benzamide]",statistically nonsignificant inhibition of neutrophilia
7,"Cc1ccc(C(=O)Nc2ccc(F)cc2)cc1-c1nc(N2CCC(N3CCCCC3)CC2)nc2c1CNC(=O)N2c1c(F)cccc1F [87(b), 3-[2-(1,4′-bipiperidin-1′-yl)-8-(2,6-difluorophenyl)-7-oxo-5,6,7,8-tetrahydropyrimido[4,5-d]pyrimidin-4-yl]-N-(4-fluorophenyl)-4-methylbenzamide]",statistically nonsignificant inhibition of neutrophilia
8,"Cc1ccc(C(=O)Nc2ccc(C)c(-c3nc(NC4CC(C)(C)NC(C)(C)C4)nc4c3CNC(=O)N4c3c(F)cccc3F)c2)cc1F [23(e), N-(3-{8-(2,6-difluorophenyl)-7-oxo-2-[(2,2,6,6-tetramethyl-4-piperidinyl)amino]-5,6,7,8-tetrahydropyrimido[4,5-d]pyrimidin-4-yl}-4-methylphenyl)-3-fluoro-4-methylbenzamide]",statistically nonsignificant inhibition of neutrophilia
9,"Cc1ccc(C(=O)Nc2nccs2)cc1-c1nc(NCCN(C)C)nc2c1CNC(=O)N2c1c(F)cccc1F [118(c), 3-(8-(2,6-difluorophenyl)-2-{[2-(dimethylamino)ethyl]amino}-7-oxo-5,6,7,8-tetrahydropyrimido[4,5-d]pyrimidin-4-yl)-4-methyl-N-1,3-thiazol-2-ylbenzamide]",statistically significant inhibition of neutrophilia
10,"Cc1ccc(C(=O)Nc2ccc(F)cc2)cc1-c1nc(NC2CCN(C)CC2)nc2c1CNC(=O)N2c1c(F)cccc1F [Example 39, 3-{8-(2,6-difluorophenyl)-2-[(1-methyl-4-piperidinyl)amino]-7-oxo-5,6,7,8-tetrahydropyrimido[4,5-d]pyrimidin-4-yl}-N-(4-fluorophenyl)-4-methylbenzamide]",statistically nonsignificant inhibition of neutrophilia
11,"Cc1ccc(C(=O)NC(C)C)cc1-c1nc(NC2CCN(Cc3ccccc3)CC2)nc2c1CNC(=O)N2c1c(F)cccc1F [Example 200, 3-(8-(2,6-difluorophenyl)-7-oxo-2-{[1-(phenylmethyl)-4-piperidinyl]amino}-5,6,7,8-tetrahydropyrimido[4,5-d]pyrimidin-4-yl)-4-methyl-N-(1-methylethyl)benzamide]",statistically significant inhibition of neutrophilia
12,"Cc1ccc(C(=O)NCc2ccccc2)cc1-c1nc(N2CCN(C)CC2)nc2c1CNC(=O)N2c1c(F)cccc1F [Example 148, 3-[8-(2,6-difluorophenyl)-2-(4-methyl-1-piperazinyl)-7-oxo-5,6,7,8-tetrahydropyrimido[4,5-d]pyrimidin-4-yl]-4-methyl-N-(phenylmethyl)benzamide]",statistically nonsignificant inhibition of neutrophilia
13,"CCCNC(=O)c1ccc(C)c(-c2nc(N(C)CCCN(C)C)nc3c2CNC(=O)N3c2c(F)cccc2F)c1 [Example 53, 3-{8-(2,6-difluorophenyl)-2-[[3-(dimethylamino)propyl](methyl)amino]-7-oxo-5,6,7,8-tetrahydropyrimido[4,5-d]pyrimidin-4-yl}-4-methyl-N-propylbenzamide]",statistically nonsignificant inhibition of neutrophilia

# Tested on: IL-6, IL-8, GM-CSF, RANTES and COX-2
# Assay: not given
# Details: a number of different cell types; cited from earlier work
row,SMILES,"decreasing the synthesis of pro-inflammatory proteins including IL-6, IL-8, GM-CSF, RANTES and COX-2"
1,Fc1ccc(-c2nc3n(c2-c2ccncc2)CCS3)cc1 [SK&F 86002],effective
2,C[S+]([O-])c1ccc(-c2nc(-c3ccncc3)c(-c3ccc(F)cc3)[nH]2)cc1 (stereo not shown) [SB-203580],effective

# Tested on: TGF-β-induced fibronectin and thrombospondin
# Assay: not given
# Details: Laping et al., 2002, Molec. Pharmacol. 62:58-64; cited from earlier work
row,SMILES,effect on TGF-β-induced increases in fibronectin and thrombospondin
1,COc1nccc(-c2c(-c3ccc(F)cc3)ncn2C2CCNCC2)n1 [SB-242235],inhibited
